From ChEMBL document CHEMBL1151093, “6,7,8,9-tetrahydro-3-hydroxy-1H-1-benzazepine-2,5-diones via a diels-alder reaction:antagonists with a non-planar hydrophobic region for NMDA receptor glycine sites” (Bioorg Med Chem Lett, 1995) come the findings set out here.

For the assay, the target named is Glutamate receptor ionotropic, NMDA 1 (Rattus norvegicus, UniProt P35439). The experiment in a line: Tested for the inhibition of [3H]5,7-dichlorokynurenic acid (DCKA) binding to NMDA receptor.
As a reminder, the IC50 is the midpoint of a concentration-inhibition curve. Read a high IC50 as a need for much substance. `O=c1cc(O)c2ccc(Cl)cc2[nH]c1=O`: the concentration for half-maximal inhibition (IC50) stood at 13 nM.

As for `CC1Cc2[nH]c(=O)c(=O)cc(O)c2CC1C` (stereo not given), the half-maximal inhibitory concentration (IC50) came to 228 nM.

Consider `O=c1cc(O)c2c([nH]c1=O)CCCC2`, for which the half-maximal inhibitory concentration (IC50) amounted to 3210 nM.

As for `O=c1cc(O)c2ccccc2[nH]c1=O`, the IC50 was 827 nM.

With `O=c1cc(O)c2c([nH]c1=O)CC(Cl)C(Cl)C2` (stereo not given), the IC50 amounted to 131 nM.
